Legend:
Type in all cases: binding
[1] = target: T1, N-terminal CRD of hGalectin-4 (Gal-4N) (Homo sapiens, UniProt P56470); assay: 1H-15N HSQC NMR-based titrations (chemical shift perturbation) of 15N-labeled Gal-4N; conditions: HSQC NMR-based titration, 50 μM 15N-labeled lectin, 298 K; read-out: KD (μM) (NMR)
T1 construct: N-terminal CRD of hGalectin-4 (amino acids 1–150, including an additional C-terminus His-Tag); His-Tag (C, cleaved yes); made in house; host or cells: E. coli BL21 (pET29b)
T1 sequence (P56470 1-150): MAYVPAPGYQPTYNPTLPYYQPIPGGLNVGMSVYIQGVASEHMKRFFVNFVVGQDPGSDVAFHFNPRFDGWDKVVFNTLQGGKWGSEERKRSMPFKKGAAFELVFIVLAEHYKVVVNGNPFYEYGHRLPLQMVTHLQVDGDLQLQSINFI
Method: The molecular recognition event was also analyzed from the perspective of the lectin. Thus, a chemical shift perturbation (CSP) analysis of the changes produced in the ^1H-^15N HSQC spectra recorded for ^15N-labeled Gal-4N upon addition of the different ligands was carried out. This analysis required the NH backbone NMR assignment of the lectin signals, following well-established triple resonance 3D NMR methods (see Materials and methods and Supplementary Information). The assignment protocol allowed assigning 80% of the NH backbone resonances. In addition to the ligands shown in Scheme 1, the corresponding non-fucosylated analogs and the H antigens (devoid of the terminal Gal/GalNAc moieties, see Supplementary Information), as well as lactose, were also employed. Thus, a full comparative analysis on the monosaccharide-specific effects on the lectin CSP was achieved.
The total volume for the NMR samples was 500/μl. The lectin was in phosphate-buffered saline (50 mM sodium phosphate, 150 mM NaCl, pH 7.4), either in D2O or 90:10 H2O:D2O depending on the NMR experiment. The pH was adjusted with the required amount of NaOH and HCl or NaOD and DCl.
experiments were acquired using an 800 MHz Bruker spectrometer with a cryoprobe (Bruker, Billerica, MA, United States). The samples were prepared using 50 μM of the ^15N-labeled lectin in the corresponding buffer in a 90:10 H2O:D2O ratio. The experiments were performed at 298 K. Six to nine points were recorded for each ligand and CSP and KD were calculated using CcpNmr Analysis 2.4.2.

[2] = target: T1, N-terminal CRD of hGalectin-4 (Gal-4N); assay: Isothermal titration calorimetry (ITC); conditions: for Kd: PBS pH 7.4, single binding site model
Method: Isothermal titration calorimetry experiments were performed using the MicroCal PEAQ-ITC calorimeter (Malvern Panalytical, Malvern, United Kingdom). Samples containing 100–200 μM of Gal-4N in PBS (50 mM sodium phosphate, pH 7.4, 300 mM NaCl) were titrated with stocks of 3–10 mM in PBS of glycans 4, 5, 7, 8, 9, and 11. During the automated experiment, small aliquots (2–3 μL) of the sugar stocks were added to the cell containing the lectin. Curve fitting to a single binding site model was performed with the MicroCal Origin 7 software.
Isothermal titratrion calorimetry (ITC). Isothermal Titration Calorimetry experiments were performed using MicroCal PEAQ-ITC calorimeter. Samples containing 100-200 µM of Gal-4N in PBS (50 mM sodium phosphate pH 7.4, 300 mM NaCl) were titrated with stocks of 3-10 mM in PBS of glycans A type 1, A type 2, A type 6, B type 1, B type 2 and B type 6. During the automated experiment, small aliquots (2-3 µL) of the sugar stocks were added to the cell containing the lectin. The association constants and the thermodynamic profile of the binding was calculated from the fitting of the titration data to a single binding site model.

[3] = target: T1, N-terminal CRD of hGalectin-4 (Gal-4N); assay: 1H Saturation Transfer Difference (STD) NMR epitope mapping
Method: ^1H-saturation transfer difference NMR spectra were acquired for mixtures of Gal-4N (50 μM) with a 50-fold excess of ligand. Protein aromatic irradiation afforded the best STD intensities and thus these are discussed henceforth. The STD NMR spectra were very similar among the different ligands with respect to both the observed glycan protons and their intensities. […] Severe proton overlapping precluded a full comparison among ligands, but key isolated ^1H NMR resonance signals permitted to highlight evident differences.
All the STD NMR experiments were performed using an 800 MHz Bruker spectrometer with a cryoprobe (Bruker, Billerica, MA, United States). The samples were prepared in the corresponding deuterated buffer. The temperature was 288 K for every experiment. An amount of 50 μM of the lectin with 50 equivalents of the ligand was employed for every experiment except for lactose, for which a 1:70 ratio was used. The STD spectra were acquired with 1,024 scans, 2 s of saturation time using a train of 50 ms Gaussian-shaped pulses, and 3 s of relaxation delay. The spin-lock filter applied to remove the signals of the lectin was set at 40 ms. The on-resonance frequency was set for the aromatic region at 6.58 ppm, while the off-resonance frequency was set at 100 ppm.
Supplementary Table S1. Relative STD-AF (Amplification factor) and STD percentage of each non overlapping proton of each ligand.

[4] = 1H-residue NHAcGlcNAc (B type 1: first of two lines)
[5] = 1H-residue NHAcGlcNAc (B type 1: second of two lines)

| Structure (SMILES) | Kd [1] | -TΔS (kcal mol^–1) (ITC) [2] | ΔG (kcal mol^–1) (ITC) [2] | ΔH (kcal mol^–1) (ITC) [2] | Kd [2] | STD% ([3]; 1H-residue H1 Fuc) | STD-AF ([3]; 1H-residue H1 Fuc) | STD% ([3]; 1H-residue H1Galα) | STD-AF ([3]; 1H-residue H1Galα) | STD% ([3]; 1H-residue H1Galβ) | STD-AF ([3]; 1H-residue H1Galβ) | STD% ([3]; 1H-residue H1GlcNAc) | STD-AF ([3]; 1H-residue H1GlcNAc) | STD% ([3]; 1H-residue H3GlcNAc) | STD-AF ([3]; 1H-residue H3GlcNAc) | STD% ([3]; 1H-residue H4Galβ) | STD-AF ([3]; 1H-residue H4Galβ) | STD% ([3]; 1H-residue H5Galβ) | STD-AF ([3]; 1H-residue H5Galβ) | STD% ([3]; 1H-residue MetFuc) | further results |
| --- | --- | --- | --- | --- | --- | --- | --- | --- | --- | --- | --- | --- | --- | --- | --- | --- | --- | --- | --- | --- | --- |
| CC(=O)NC1C(O)OC(CO)C(OC2OC(CO)C(O)C(OC3OC(CO)C(O)C(O)C3O)C2OC2OC(C)C(O)C(O)C2O)C1O (stereo not shown) [B type-2 (tetra)] | 190 µM | 3.8 kcal mol^–1 | −5.5 kcal mol^–1 | −9.3 kcal mol^–1 | 88 µM | 16% | 0.0024 | 73% | 0.0108 | 59% | 0.0088 | 24% | 0.0035 | 36% | 0.0054 | 55% | 0.0081 | 100% | 0.0148 | 16% | STD% ([3]; 1H-residue H3Galβ): 36%; STD-AF ([3]; 1H-residue H3Galβ): 0.0054; STD% ([3]; 1H-residue H4Galα): 18%; STD-AF ([3]; 1H-residue H4Galα): 0.0027; STD-AF ([3]; 1H-residue MetFuc): 0.0023; STD-AF [3, 4]: 0.0035 |
| CC(=O)N[C@@H]1[C@@H](O[C@@H]2O[C@H](CO)[C@H](O)[C@H](O[C@H]3O[C@H](CO)[C@H](O)[C@H](O)[C@H]3O)[C@H]2O[C@@H]2O[C@@H](C)[C@@H](O)[C@@H](O)[C@@H]2O)[C@H](O)[C@@H](CO)O[C@H]1O [B type-1 (tetra)] | 200 µM | 2.3 kcal mol^–1 | −5.4 kcal mol^–1 | −7.7 kcal mol^–1 | 109 µM | 0% | 0.0000 | 56% | 0.0053 | 70% | 0.0066 | 16% | 0.0015 | 38% | 0.0036 | 74% | 0.0070 | 100% | 0.0094 | 14% | STD% ([3]; 1H-residue H2Galα): 35%; STD-AF ([3]; 1H-residue H2Galα): 0.0033; STD% ([3]; 1H-residue H2GlcNAc): 29%; STD-AF ([3]; 1H-residue H2GlcNAc): 0.0027; STD% ([3]; 1H-residue H4GlcNAc): 53%; STD-AF ([3]; 1H-residue H4GlcNAc): 0.0050; STD% ([3]; 1H-residue H5Galα): 23%; STD-AF ([3]; 1H-residue H5Galα): 0.0022; STD-AF ([3]; 1H-residue MetFuc): 0.0013; STD% [3, 4]: 141%; STD-AF [3, 4]: 0.0133; STD% [3, 5]: 59%; STD-AF [3, 5]: 0.0055; STD% ([3]; Average NHAc): 100%; STD-AF ([3]; Average NHAc): 0.0094 |

— article PMC8097242, “Galectin-4 N-Terminal Domain: Binding Preferences Toward A and B Antigens With Different Peripheral Core Presentations” (Frontiers in Chemistry, 2021)
